The record followed here is the supplement of paper PMC11616607.

Structures are written as SMILES.

One assay deals with OVCAR4. The experiment in a line: drug sensitivity score (DSS) from 5-point dose-response viability curve (DSS (area-under-curve based score)); higher = more sensitive (stronger growth inhibition or killing); extreme values may be limits of the assay. The following applies: exposure time: 72 h; concentration range: 5 concentrations over 10,000-fold range. Summed up: (§1)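 Drug sensitivity scores were calculated in Breeze software for each cell line and drug pair; higher scores indicate more sensitivity. A score of zero indicates no response. The underlying assay used 384-well plates: drugs were placed by an Echo 550 acoustic dispenser at five concentrations spanning a 10,000-fold range, 1,500 ovarian cancer or normal ovarian cells were added per well, and cells were kept 3 days at 37°C, 5% CO2. Viability was then measured with CellTiter-Glo luminescence on a PHERAstar FS.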
`COc1cc(N2CCC(N3CCN(C)CC3)CC2)ccc1Nc1ncnc(Nc2ccccc2S(=O)(=O)C(C)C)n1` [ASP3026] gave a drug sensitivity score of 4.3.
On the same count and under the same terms, then `CNC(=O)c1ccccc1Nc1cc(Nc2ccc(N3CCOCC3)cc2OC)ncc1C(F)(F)F` [VS-4718], with 6.8; and `CC(=O)c1c(C)c2cnc(Nc3ccc(N4CCNCC4)cn3)nc2n(C2CCCC2)c1=O` [Palbociclib], with 0.1; and `CS(=O)(=O)N1CCN(Cc2cc3nc(-c4cccc5[nH]ncc45)nc(N4CCOCC4)c3s2)CC1` [Pictilisib], with 5.3.
Same read-out and setting: the result for `CCS(=O)(=O)N1CC(CC#N)(n2cc(-c3ncnc4[nH]ccc34)cn2)C1` [Baricitinib] reads 0; that for `O=C(Nc1cnn2ccc(N3CCC[C@@H]3c3cc(F)ccc3F)nc12)N1CC[C@H](O)C1` [Larotrectinib], 0; that for `CCN1CCN(Cc2ccc(Nc3ncc(F)c(-c4cc(F)c5nc(C)n(C(C)C)c5c4)n3)nc2)CC1` [Abemaciclib], 0.
Still for that read-out and setting: then `O=C(Nc1ccncc1)C(=O)c1cn(Cc2ccc(Cl)cc2)c2ccccc12` [Indibulin], with 5.5; and `CN(C)C[C@@H]1CCn2cc(c3ccccc32)C2=C(C(=O)NC2=O)c2cn(c3ccccc23)CCO1` [Ruboxistaurin], with 2.5; and `C[C@H](Nc1ncnc2[nH]cnc12)c1cc2ccc(F)cc2nc1-c1ccccn1` [AMG319], with 0.7.
In turn, `CC(C)(C)c1cc(NC(=O)Nc2ccc(Oc3ccnc4[nH]c(=O)cnc34)cc2F)n(-c2ccccc2)n1` gave a drug sensitivity score of 2.8.
The same measure, in the same setting: then `CCn1cc(-c2ccnc3[nH]c(-c4cccc(CN(C)C)c4)cc23)c(-c2ccc(NC(=O)N(C)C)cc2)n1`, with 2.9.
On the same count and under the same terms, the result for `CCCCCCCCc1ccc(CCC(N)(CO)CO)cc1` [Fingolimod] reads 7.5.
Same read-out and setting: the result for `C1=N/C2=N/c3ccc(OCCN4CCCC4)c(c3)COC/C=C/COCc3cccc(c3)C(=C1)N2` [Pacritinib] reads 6.8; that for `Nc1ccccc1NC(=O)c1ccc(CNc2nccc(-c3cccnc3)n2)cc1` [Mocetinostat], 6.8.
Take `N#CC1(c2ccc(NC(=O)c3cccnc3NCc3ccncc3)cc2)CCCC1` [Apatinib]: the drug sensitivity score stood at 0.

The next assay has as its system Kuramochi. Described as above. The following applies: exposure time: 72 h; concentration range: 5 concentrations over 10,000-fold range. The method in brief: as §1
For `O=C(O)c1ccc2c(c1)nc(Nc1cccc(Cl)c1)c1ccncc12` [Silmitasertib], the drug sensitivity score amounted to 5.5.
The same measure, in the same setting: the result for `CCOc1ccccc1-n1c(C(C)N2CCN(C(=O)COc3ccc(Cl)cc3)CC2)nc2ccccc2c1=O` (configuration not stated) [Erastin] reads 0; that for `CCNCCS(=O)(=O)NC[C@@]1(c2ccccc2)SC(NC(=O)C(C)(C)C)=NN1C(=O)C(C)(C)C` [Litronesib], 7.5; that for `CNC(=O)c1cccc(-c2ccc3c(N4CCOC[C@@H]4C)nc(N4CCOC[C@@H]4C)nc3n2)c1` [Vistusertib], 11.5.
Same read-out and setting: then `CC(C)(C)c1cc(NC(=O)Nc2ccc(-c3cn4c(n3)sc3cc(OCCN5CCOCC5)ccc34)cc2)no1` [Quizartinib], with 0.
Same read-out and setting: the result for `N[C@@H]1CCCN(c2c(/C=C3\SC(=O)NC3=O)cccc2-c2ccccc2)C1` [AZD1208] reads 1.7; that for `CCc1c2c(nc3ccc(O)cc13)-c1cc3c(c(=O)n1C2)COC(=O)[C@]3(O)CC` [SN-38], 14.6; that for `Cn1cc(-c2ccc(F)c(C(F)(F)F)c2)nc1C1CCN(c2ncnc3[nH]ncc23)CC1`, 0.
Regarding `C=CC(=O)Nc1cc(Nc2nccc(-c3cn(C)c4ccccc34)n2)c(OC)cc1N(C)CCN(C)C` [Osimertinib], the drug sensitivity score is 3.9.
Turning to `COC(=O)c1ccc2c(c1)[nH]c1ncnc(NCCCN3CCCCC3)c12` [UM729], the drug sensitivity score was determined as 0.
`Cc1nc(NC(=O)N2CCC[C@H]2C(N)=O)sc1-c1ccnc(C(C)(C)C(F)(F)F)c1` [Alpelisib] returned a drug sensitivity score of 2.4.
The same measure, in the same setting: then `C[C@H]1CNCCCN1S(=O)(=O)c1cccc2cncc(F)c12` [Ripasudil], with 0; and `CC(C)(C)C[C@@H]1N[C@@H](C(=O)N[C@H]2CC[C@H](O)CC2)[C@H](c2cccc(Cl)c2F)[C@]12C(=O)Nc1cc(Cl)ccc12`, with 1.5; and `CON(C)C(=O)N1N=C(c2cc(F)ccc2F)S[C@@]1(CCCN)c1ccccc1` [Filanesib], with 9.5.
The same measure, in the same setting: then `CN(C)CC#Cc1ccc(OCCCc2sc(N3CCc4cccc(C(=O)Nc5nc6ccccc6s5)c4C3)nc2C(=O)O)c(F)c1`, with 1.6.
The same measure, in the same setting: then `COc1cc(N2CCC(N3CCN(C)CC3)CC2)ccc1Nc1ncnc(Nc2ccccc2S(=O)(=O)C(C)C)n1` [ASP3026], with 4; and `CNC(=O)c1ccccc1Nc1cc(Nc2ccc(N3CCOCC3)cc2OC)ncc1C(F)(F)F` [VS-4718], with 11.6.
`CC(=O)c1c(C)c2cnc(Nc3ccc(N4CCNCC4)cn3)nc2n(C2CCCC2)c1=O` [Palbociclib] displayed a drug sensitivity score of 1.4.
The same measure, in the same setting: the result for `CS(=O)(=O)N1CCN(Cc2cc3nc(-c4cccc5[nH]ncc45)nc(N4CCOCC4)c3s2)CC1` [Pictilisib] reads 10.6; that for `CCS(=O)(=O)N1CC(CC#N)(n2cc(-c3ncnc4[nH]ccc34)cn2)C1` [Baricitinib], 0.
Still for that read-out and setting: the result for `O=C(Nc1cnn2ccc(N3CCC[C@@H]3c3cc(F)ccc3F)nc12)N1CC[C@H](O)C1` [Larotrectinib] reads 0.
The same measure, in the same setting: then `CCN1CCN(Cc2ccc(Nc3ncc(F)c(-c4cc(F)c5nc(C)n(C(C)C)c5c4)n3)nc2)CC1` [Abemaciclib], with 2.5; and `O=C(Nc1ccncc1)C(=O)c1cn(Cc2ccc(Cl)cc2)c2ccccc12` [Indibulin], with 7.2.
`CN(C)C[C@@H]1CCn2cc(c3ccccc32)C2=C(C(=O)NC2=O)c2cn(c3ccccc23)CCO1` [Ruboxistaurin] returned a drug sensitivity score of 7.2.
For `C[C@H](Nc1ncnc2[nH]cnc12)c1cc2ccc(F)cc2nc1-c1ccccn1` [AMG319], the drug sensitivity score is 1.1.
Same read-out and setting: then `CC(C)(C)c1cc(NC(=O)Nc2ccc(Oc3ccnc4[nH]c(=O)cnc34)cc2F)n(-c2ccccc2)n1`, with 2.3; and `CCn1cc(-c2ccnc3[nH]c(-c4cccc(CN(C)C)c4)cc23)c(-c2ccc(NC(=O)N(C)C)cc2)n1`, with 0.4; and `CCCCCCCCc1ccc(CCC(N)(CO)CO)cc1` [Fingolimod], with 7.5.
On the same count and under the same terms, then `C1=N/C2=N/c3ccc(OCCN4CCCC4)c(c3)COC/C=C/COCc3cccc(c3)C(=C1)N2` [Pacritinib], with 6.5; and `Nc1ccccc1NC(=O)c1ccc(CNc2nccc(-c3cccnc3)n2)cc1` [Mocetinostat], with 7.
Still for that read-out and setting: then `N#CC1(c2ccc(NC(=O)c3cccnc3NCc3ccncc3)cc2)CCCC1` [Apatinib], with 0.
